{
  "source": "paper PMC6145916",
  "about": "“Interaction of mitochondrial fission factor with dynamin related protein 1 governs physiological mitochondrial function in vivo” (Scientific Reports, 2018)",
  "key": {"Wild-type MEF cells": {"tested_on": "Wild-type MEF cells", "conditions": "4 µM P259, 15 minutes, mito-dendra2 photoconversion; 9 movies over two independent experiments"}, "SH-SY5Y cells": {"tested_on": "SH-SY5Y cells", "assay": "Oxygen consumption rate, SH-SY5Y", "assay_type": "cell-based, human", "conditions": "overnight treatment, XFe24 analyzer"}, "[1]": {"tested_on": "neuroblastoma SH-SY5Y cells", "assay": "Mitochondrial morphology (Tom20 immunofluorescence), SH-SY5Y", "assay_type": "cell-based, human", "method": "Represented Western blot is cropped from a full blot shown in the Expanded Western Blots section of the Supplementary Information. […] Hoechst 33342 is shown in blue and Tom20 in green (n = 3, 10 images each). Below, quantification of the form factor (degree of branching) and major axis length (length of mitochondria). At least 6,000 mitochondrial fragments were measured for each condition. Mitochondrial reactive oxygen species (ROS) production (MitoSox Red) (c) and mitochondrial membrane potential (TMRM) (d) after overnight treatment with indicated concentrations of peptide or FCCP. Data are from 3 independent experiments per condition normalized to the average no peptide value. (e) Relative mitochondrial ROS (MitoSox Red) signal in GFP positive cells expressing full-length or alanine-substituted P259 at indicated amino acids after two days of transfection. Values are normalized to a GFP empty vector (n = 3, with 3 replicates). […] Data are mean ± s.e. […]\nCells were fixed onto Permanox plastic slides with 4% paraformaldehyde in PBS for 10 minutes at room temperature. Cells were permeabilized in 0.1% Triton X-100 and 1% normal goat serum (blocking buffer) for one hour at room temperature. Permeabilized cells were incubated overnight with primary anti-Tom20 antibody (Santa Cruze Biotech, sc-11415, 1:250 dilution) in a humidified chamber. Slides were subsequently incubated with FITC-conjugated goat anti-rabbit IgG for two hours at room temperature in a light-shielding humidified chamber. Cells were washed with blocking buffer and stained with Hoechst 33342 (Invitrogen, OR, USA, […]). Coverslips were mounted with a Slowfade antifade solution (Invitrogen, OR, USA). Images were acquired using an LSM 700 confocal laser-s canning microsc ope equipped with a Plan Apochromat 63x/1.4 NA oil-immersion objective (Zeiss).\nMitochondrial morphology analysis\nHigh-throughput image analysis of mitochondrial morphology was performed using MATLAB with the Image Processing toolkit. Background illumination, obtained by morphological opening of the image, was subtracted from the original image. The image was then passed through a top - hat transformation to highlight objects from the background followed by a pixel-wis e adaptive low-pas s Wiener filter to remove noise. A 90th percentile threshold was used to convert the image to a binary image. Erroneously large and small objects were removed from the image and morphological features were extracted from the binary objects. Major axis length is defined as th e length of the longest line that can be drawn through a binary object while the minor axis length is defined as the length of the shortest line. The aspect ratio is defined by the major axis length divided by the minor axis length. […]"}, "Drp1": {"tested_on": "Drp1", "assay": "Mitochondrial Drp1 content in brain of wild-type mice", "assay_type": "in vivo, mouse", "conditions": "3 mg/Kg/day, subcutaneous osmotic pump, 8-week treatment, WT mice; Drp1 relative to ALDH2; n = 4 mice", "from_the_text": "(a) Quantification of mitochondrial Drp1 content relative to ALDH2 (a mitochondrial matrix enzyme) in the mitochondrial fraction isolated from total brain lysate of wild-type mice (Western blot shown in Fig. S3B) (n = 4 mice). (b) ATP content in brain tissue of wild-type mice (n = 4 mice, 2 replicates). (c) Representative transmission electron microscopy images of the striatum from wild-type mice. […] The first principal component represents 42% of the variation. (f) Local linear embedding dimensionality reduction and visualization of all behaviors collected weekly from TAT- (black) or P259- (purple) treated WT and TAT- (white) treated R6/2 mice over the course of 8 weeks. […] All behavior and survival tests were conducted by an experienced observer who was blinded to the treatment groups. Data are mean ± s.e.\nFive-week old R6/2 HD mice and their wild-type littermates (a total of 60 mice) were implanted subcutaneously with a 28-d Alzet osmotic pump with either P259-TAT or TAT control peptide (15 mice per group) to be delivered continuously at a rate of 3 mg/Kg/day, as previously described. […]\nThe effect of peptides on GTPase activity of Drp1 was measured by incubating recombinant Drp1 […]\nfor 1 hour at 37 °C. GTPase activity was measured using a colorimetric GTPase assay kit (Novus Biologicals, CO, USA) as instructed by the manufacturer. […]"}, "[2]": {"conditions": "4 µM TAT-P259, 30-minute treatment, vs TAT, n = 3"}},
  "note": "Where no end group is shown, it is not given here.",
  "data": [
    {"substance": "YGRKKRRQRRRGSGIIQLPEIVVV-NH2 (C-terminus assumed) [P259]", "values": [
      {"measurement": "rate of mitochondrial fusion", "setting": "Wild-type MEF cells", "value": "did not increase the rate of mitochondrial fusion"},
      {"measurement": "electron flux (electron transport chain flux)", "setting": "SH-SY5Y cells; 4 µM (Fig. 2f), n = 3, with at least 3 replicates", "value": "dose-dependent decline"},
      {"measurement": "basal oxygen consumption rate", "setting": "SH-SY5Y cells; indicated concentrations, 3 independent experiments", "value": "dose-dependent decline"},
      {"measurement": "form factor (degree of branching)", "setting": "[1]; [2]", "value": "higher form factors"},
      {"measurement": "major axis length", "setting": "[1]; [2]", "value": "increased major axis lengths"},
      {"measurement": "mitochondrial morphology", "setting": "[1]; 4 µM TAT-P259 or 10 µM Mdivi-1, 30-minute treatment, n = 3, 10 images each", "value": "more elongated and branched mitochondria"},
      {"measurement": "reduction of mitochondrial Drp1 association (brain)", "setting": "Drp1", "value": "~ 80%"}
    ]}
  ]
}
